Source: patent US20220023282A1 (priority 2018, published 2022)
≈ marks a conversion by molar mass, not a printed value.

Experiments:
A549 = assay: Cell viability (MTT) of pulmonary epithelial cells; format: cell-based
Experimental: (§1) MTT is the tetrazolium dye 3-(4,5-dimethylthiazol-2-yl)-2,5-diphenyltetrazolium bromide which is converted by mitochondrial reductase to its insoluble formazan. In living cells, the insoluble formazan can be dissolved by adding the detergent dimethylsulfoxide for 15 minutes. The absorption of the respective dye is measured by a plate-reader at 590 nm. For the calculation of the viability after the incubation of the test compounds a positive and a negative control is included. Hank's balanced salt solution (HBSS) is used as a negative control and the resulting absorbance value is set to 100% viability. The positive control (1% Triton-X-100) is used to set 0% viability. Accordingly, the IC50 value of the test formulation can be determined by measuring a dose-response curve in log-scale.
(§2) These formulations (designated as 100%) were diluted with HBSS to give the following formulations for testing:
(§3) Cells were treated with the test formulations for 4 hours at 37° C. The viability of the cells after exposure was used to set up a dose-response curve in logarithmic scale. A sigmoidal fit enables the IC20, IC50, and IC80 calculations of the test substances.

Calu-3 = assay: Cell viability (MTT) of pulmonary epithelial cells; format: cell-based
Experimental: as §1, §2, §3

[1] = tested on: Mycobacterium tuberculosis H37Rv; details: standardized broth-dilution assay; cited from earlier work
M. avium [2] = details: cited from earlier work
M. abscessus [3] = details: cited from earlier work
M. abscessus [4] = details: cited from earlier work; remark: listed apart in the source
M. ulcerans = details: cited from earlier work
M. marinum = details: cited from earlier work
M. smeqmatis mc2 155 = details: cited from earlier work
M. avium [5] = details: cited from earlier work; remark: listed apart in the source
M. kansasii = details: cited from earlier work
M. fortuitum = details: cited from earlier work
M. chelonae = details: cited from earlier work
M. maqeritense = details: cited from earlier work
M. phlei = details: cited from earlier work
M. vaccae = details: cited from earlier work
M. malmoense = details: cited from earlier work
M. qordonae = details: cited from earlier work
M. simiae = details: cited from earlier work
M. scrofulaceum = details: cited from earlier work
M. hiberniae = details: cited from earlier work
[6] = tested on: Drug-susceptible M. tuberculosis; details: cited from earlier work
MOR M. tuberculosis = details: cited from earlier work
[7] = in vivo, cited from earlier work
[8] = human, in vivo, 400 mg; cited from earlier work

COc1nc2ccc(Br)cc2cc1[C@@H](c1ccccc1)[C@@](O)(CCN(C)C)c1cccc2ccccc12 [bedaquiline, (1R,2S)-1-(6-bromo-2-methoxyquinolin-3-yl)-4-(dimethylamino)-2-(naphthalen-1-yl)-1-phenylbutan-2-ol]
cytotoxic effect on cell viability as compared with vehicle (A549): minimal cytotoxic effect
cytotoxic effect on cell viability as compared with vehicle (Calu-3): minimal cytotoxic effect
MIC99 [1]: 0.015 to 0.12 µg/mL
MIC99 (M. avium [2]): 0.01 to 0.03 µg/mL
MIC99 (M. abscessus [3]): 0.25 to 0.5 µg/mL
MIC (M. abscessus [4]): 0.25 µg/mL (≈ 0.45 µM)
MIC (M. ulcerans): 0.5 µg/mL (≈ 0.9 µM)
MIC (M. marinum): 0.003 µg/mL (≈ 0.0054 µM)
MIC (M. smeqmatis mc2 155): 0.12 µg/mL (≈ 0.216 µM)
MIC (M. avium [5]): 0.03 to 0.13 µg/mL
MIC (M. kansasii): 0.03 µg/mL (≈ 0.054 µM)
MIC (M. fortuitum): 0.13 to 0.25 µg/mL
MIC (M. chelonae): 0.06 to 0.5 µg/mL
MIC (M. maqeritense): 0.03 µg/mL (≈ 0.054 µM)
MIC (M. phlei): 0.03 to 0.13 µg/mL
MIC (M. vaccae): 0.03 µg/mL (≈ 0.054 µM)
MIC (M. malmoense): 0.50 µg/mL (≈ 0.9 µM)
MIC (M. qordonae): 0.03 µg/mL (≈ 0.054 µM)
MIC (M. simiae): 0.03 µg/mL (≈ 0.054 µM)
MIC (M. scrofulaceum): 0.03 µg/mL (≈ 0.054 µM)
MIC (M. hiberniae): 0.03 µg/mL (≈ 0.054 µM)
MIC [6]: 0.06 µg/mL (≈ 0.108 µM)
MIC (MOR M. tuberculosis): 0.06 µg/mL (≈ 0.108 µM)
time to maximal plasma concentration after administration ([7]; po): 4 to 6 h
effective half-life [7]: 24 h
half life in tissues [7]: more than 5 months
terminal half life [7]: 5.5 months
Cmax in the sputum [8]: 5000 ng/mL
